Reference: patent US9580409B2, “Modulators of opioid receptors and methods of use thereof” (priority 2011, dated 2017)

Assays:
mu-opioid receptor [1] = biological target: T1, mu-opioid receptor (Homo sapiens, UniProt P35372); experiment: biochemical; details: read-out: GTP Activity
Target sequence in this assay (P35372 whole entry, species assumed): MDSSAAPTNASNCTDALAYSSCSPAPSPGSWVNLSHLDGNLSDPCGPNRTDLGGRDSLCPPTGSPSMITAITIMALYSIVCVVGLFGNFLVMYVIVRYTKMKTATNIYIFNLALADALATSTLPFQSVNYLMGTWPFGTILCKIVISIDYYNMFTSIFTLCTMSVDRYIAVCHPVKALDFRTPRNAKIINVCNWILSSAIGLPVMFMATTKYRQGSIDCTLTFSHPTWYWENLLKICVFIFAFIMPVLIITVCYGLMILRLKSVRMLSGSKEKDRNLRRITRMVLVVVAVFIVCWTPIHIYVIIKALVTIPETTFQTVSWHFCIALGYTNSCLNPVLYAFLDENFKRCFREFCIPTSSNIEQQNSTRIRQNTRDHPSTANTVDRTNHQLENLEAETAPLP

mu-opioid receptor [2] = biological target: T1, mu-opioid receptor; experiment: cell-based; details: read-out: BArr Activity
Target sequence in this assay (P35372 whole entry, species assumed): as above
Target sequence in this assay (P32121 whole entry partner, species assumed): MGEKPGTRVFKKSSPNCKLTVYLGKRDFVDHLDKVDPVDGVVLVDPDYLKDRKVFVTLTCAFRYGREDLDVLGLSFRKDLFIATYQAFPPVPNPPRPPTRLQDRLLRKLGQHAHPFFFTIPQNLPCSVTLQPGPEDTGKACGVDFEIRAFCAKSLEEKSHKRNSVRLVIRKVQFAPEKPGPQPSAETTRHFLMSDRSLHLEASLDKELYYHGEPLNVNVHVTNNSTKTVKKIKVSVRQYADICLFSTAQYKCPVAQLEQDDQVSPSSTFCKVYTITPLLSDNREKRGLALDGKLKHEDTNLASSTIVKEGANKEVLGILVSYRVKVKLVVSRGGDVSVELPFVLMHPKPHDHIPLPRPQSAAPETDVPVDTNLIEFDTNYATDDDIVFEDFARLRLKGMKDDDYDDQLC

[3] = […], class symbol combines EC50 and efficacy

Structure (SMILES) | EC50 (mu-opioid receptor [1]; [3]) | EC50 (mu-opioid receptor [2]; [3]) | EC50 (mu-opioid receptor [1]; class symbols) | EC50 (mu-opioid receptor [2]; class symbols)
CNC1=C(c2nc3ccccc3[nH]2)C(=O)C2(CCOC2)N1c1cc(OC)cc(OC)c1 (stereo not shown) [compound 208] | < 0.1 µM | < 10 µM | – | –
CNC1=C(c2nc3ccccc3[nH]2)C(=O)C(C)(C)N1c1cc(OC)cc(OC)c1 [compound 79] | – | – | < 0.1 µM | < 10 µM
CNC1=C(c2nc3ccccc3[nH]2)C(=O)[C@]2(CCCOC2)N1c1cc(OC)cc(OC)c1 [compound 305] | < 0.1 µM | < 10 µM | – | –
CCNC1=C(c2nc3ccccc3[nH]2)C(=O)C(CC)N1c1cc(OC)cc(OC)c1 (stereo not shown) [compound 154] | – | – | 0.1 to 1 µM | < 10 µM
CNC1=C(c2nc3ccccc3[nH]2)C(=O)C2(CCCC2)N1c1cc(OC)cc(OC)c1 [compound 188] | – | – | < 0.1 µM | < 10 µM
CCNC1=C(c2nc3ccccc3[nH]2)C(=O)C(C)(C)N1c1cc(OC)cc(OC)c1 [compound 89] | – | – | < 0.1 µM | < 10 µM
COc1cc(OC)cc(N2C(N)=C(c3nc4ccccc4[nH]3)C(=O)C2C(C)C)c1 (stereo not shown) [compound 55] | – | – | 0.1 to 1 µM | < 10 µM
CCC1C(=O)C(c2nc3ccccc3[nH]2)=C(N)N1c1cc(OC)cc(OC)c1 (stereo not shown) [compound 54] | – | – | 0.1 to 1 µM | < 10 µM
COc1cc(OC)cc(N2C(NC(C)C)=C(c3nc4ccccc4[nH]3)C(=O)C2(C)C)c1 [compound 90] | – | – | 0.1 to 1 µM | < 10 µM
CNC1=C(c2nc3ccccc3[nH]2)C(=O)C2(CCC2)N1c1cc(OC)cc(OC)c1 [compound 109] | – | – | < 0.1 µM | < 10 µM
CNC1=C(c2nc3ccccc3[nH]2)C(=O)[C@@]2(CCOC2)N1c1cc(OC)cc(OC)c1 [compound 214] | < 0.1 µM | < 10 µM | – | –
CNC1=C(c2nc3ccccc3[nH]2)C(=O)[C@H](C)N1c1cc(OC)cc(OC)c1 [compound 137] | – | – | 0.1 to 1 µM | < 10 µM
CCC(=O)NCCC1(C)C(=O)C(c2nc3ccccc3[nH]2)=C(NC)N1c1cc(OC)cc(OC)c1 (stereo not shown) [compound 285] | < 0.1 µM | < 10 µM | – | –
CCNC1=C(c2nc3ccccc3[nH]2)C(=O)CN1c1cc(OC)cc(OC)c1 [compound 88] | – | – | 0.1 to 1 µM | < 10 µM
COc1cc(OC)cc(N2C(N)=C(c3nc4ccccc4[nH]3)C(=O)[C@H]2C)c1 [compound 82] | – | – | < 0.1 µM | < 10 µM
CC[C@H]1C(=O)C(c2nc3ccccc3[nH]2)=C(N)N1c1cc(OC)cc(OC)c1 [compound 96] | – | – | < 0.1 µM | < 10 µM
COc1cc(OC)cc(N2C(N)=C(c3nc4ccccc4[nH]3)C(=O)C23CCCC3)c1 [compound 180] | – | – | 0.1 to 1 µM | < 10 µM
CCC1C(=O)C(c2nc3ccccc3[nH]2)=C(NC)N1c1cc(OC)cc(OC)c1 (stereo not shown) [compound 153] | – | – | < 0.1 µM | < 10 µM

Structure (SMILES) | EC50 (mu-opioid receptor [1]; [3]) | EC50 (mu-opioid receptor [2]; [3]) | EC50 (mu-opioid receptor [1]; class symbols) | EC50 (mu-opioid receptor [2]; class symbols)
CCC(=O)NCC1(C)C(=O)C(c2nc3ccccc3[nH]2)=C(NC)N1c1cc(OC)cc(OC)c1 (stereo not shown) [compound 282] | < 0.1 µM | < 10 µM | – | –
CNC1=C(c2nc3ccccc3[nH]2)C(=O)[C@](C)(CNC(C)=O)N1c1cc(OC)cc(OC)c1 [compound 307] | 0.1 to 1 µM | < 10 µM | – | –
CNC1=C(c2nc3ccccc3[nH]2)C(=O)C2(CCCOC2)N1c1cc(OC)cc(OC)c1 (stereo not shown) [compound 272] | < 0.1 µM | < 10 µM | – | –
CNC1=C(c2nc3ccccc3[nH]2)C(=O)CN1c1cc(OC)cc(OC)c1 [compound 58] | – | – | 0.1 to 1 µM | < 10 µM
CNC1=C(c2nc3ccccc3[nH]2)C(=O)C(CCNC(C)=O)N1c1cc(OC)cc(OC)c1 (stereo not shown) [compound 254] | < 0.1 µM | < 10 µM | – | –
CNC1=C(c2nc3ccccc3[nH]2)C(=O)C(C)N1c1cc(OC)cc(OC)c1 (stereo not shown) [compound 121] | – | – | < 0.1 µM | < 10 µM
CCC(=O)NCCC1C(=O)C(c2nc3ccccc3[nH]2)=C(N)N1c1cc(OC)cc(OC)c1 (stereo not shown) [compound 235] | < 0.1 µM | < 10 µM | – | –
COc1cc(OC)cc(N2C(N)=C(c3nc4ccccc4[nH]3)C(=O)C2CCCCO)c1 (stereo not shown) [compound 223] | 0.1 to 1 µM | – | – | –
CNC1=C(c2nc3ccccc3[nH]2)C(=O)C(C)(CCNC(C)=O)N1c1cc(OC)cc(OC)c1 (stereo not shown) [compound 284] | < 0.1 µM | – | – | –
CCOc1cc(OC)cc(N2C(N)=C(c3nc4ccccc4[nH]3)C(=O)C2(C)C)c1 [compound 157] | – | – | 0.1 to 1 µM | –
CNC1=C(c2nc3ccccc3[nH]2)C(=O)C2(COC2)N1c1cc(OC)cc(OC)c1 [compound 194] | – | – | < 0.1 µM | –
CNc1c(-c2nc3ccccc3[nH]2)c(=O)n(C2COC2)n1-c1cc(OC)cc(OC)c1 [compound 270] | < 0.1 µM | – | – | –
COc1cc(OC)cc(-n2c(=O)c(-c3nc4ccccc4[nH]3)c(N)n2C(C)C)c1 [compound 74] | – | – | 1 to 10 µM | –
COc1cc(OC)cc(-n2c(N)c(-c3nc4ccccc4[nH]3)c(=O)n2C)c1 [compound 86] | – | – | 0.1 to 1 µM | –
Cc1cc(C)cc(N2C(N)=C(c3nc4ccccc4[nH]3)C(=O)C2(C)C)c1 [compound 102] | – | – | 0.1 to 1 µM | –
COc1cc(OC)cc(N2C(N)=C(c3nc4ccccc4[nH]3)C(=O)C2O)c1 (stereo not shown) [compound 57] | – | – | 0.1 to 1 µM | –
COc1cc(OC)cc(N2CC(=O)C(c3nc4c(C)cccc4[nH]3)=C2N)c1 [compound 5] | – | – | 1 to 10 µM | –
COc1cc(OC)cc(N2C(N)=C(c3nc4ccccc4[nH]3)C(=O)C2(C)OC)c1 (stereo not shown) [compound 119] | – | – | 1 to 10 µM | –
